Experimental data: patent US20170107173A1, “THERAPEUTIC COMPOUNDS AND METHODS” (UNIVERSITY OF IOWA RESEARCH FOUNDATION, priority 2015, published 2017)

Key:
[1] = target: T1, human κ opioid receptor (KOP) over-expressed in CHO cells (Homo sapiens, UniProt P41145); conditions: from Hartung et al., cited from earlier work; for Ke at the KOP: J. Nat. Prod. 2014, 77, 311
T1 construct: host or cells: CHO cells; membrane homogenates

[2] = target: T2, human δ opioid receptor (DOP) over-expressed in CHO cells (Homo sapiens, UniProt P41143); test: [35S]GTPγS binding assay, functional antagonism (Ke) vs DPDPE; format: biochemical; conditions: for Kb: [35S]GTPγS, agonist DPDPE, read-out: apparent affinity (Ke) of antagonists, DOP
T2 construct: host or cells: CHO cells; membrane homogenates
Method: (§1) All compounds were initially screened for intrinsic and antagonist activity at 10 μM in the [^35S]GTPγS binding assay at the human κ, and the μ, and δ opioid receptors over-expressed in CHO cells. These cell lines were kindly provided by Temple University (κ) and SRI International (μ and δ). Compounds identified as antagonist were characterized for functional antagonism (Ke) and selectivity by measuring the ability of the test compounds to inhibit stimulated [^35S]GTPγS binding produced by one of the selective agonists DAMGO (μ), DPDPE (δ), or U69,593 (κ). Agonist concentration-response curves were run in the presence or absence of a single concentration of test compound.
(§2) The test compounds were assayed in duplicate in 1.4-mL polypropylene tubes in a 96-well format. CHO membrane homogenates (20-40 µg protein) were incubated with a positive control or the test compound, 0.1 nM [^35S]GTP-γ-S and 1 μM GDP in 50 mM HEPES buffer (pH 7.4) at room temperature for 1 h, after which bound radioligand was separated from free radioligand via rapid vacuum filtration over GF-B filters with a Brandel Scientific (Gaithersburg, Md.) 96-well harvester. Bound radioactivity is determined using a TopCount 12-detector instrument (Packard Instruments) using standard scintillation counting techniques. Bound radioactivity is normalized to samples containing vehicle (basal binding). […] The Ke values were calculated using the formula Ke=[L]/DR−1, where [L] is the concentration of test compound, and DR is the ratio of agonist EC50 value in the presence or absence of test compound.

[3] = target: T1, human κ opioid receptor (KOP) over-expressed in CHO cells; test: [35S]GTPγS binding assay, functional antagonism (Ke) vs U69,593; format: biochemical; conditions: agonist U69,593, read-out: apparent affinity (Ke) of antagonists, KOP
Method: as §1, §2

[4] = target: T3, human μ opioid receptor (MOP) over-expressed in CHO cells (Homo sapiens, UniProt P35372); test: [35S]GTPγS binding assay, functional antagonism (Ke) vs DAMGO; format: biochemical; conditions: agonist DAMGO, read-out: apparent affinity (Ke) of antagonists, MOP
T3 construct: host or cells: CHO cells; membrane homogenates
Method: as §1, §2

[5] = test system: human κ, μ and δ opioid receptors over-expressed in CHO cells; test: [35S]GTPγS binding assay, screen for intrinsic agonist activity; format: biochemical; conditions: screened at 10 μM
Method: as §1
The test compounds were assayed in duplicate in 1.4-mL polypropylene tubes in a 96-well format. […] Bound radioactivity is determined using a TopCount 12-detector instrument (Packard Instruments) using standard scintillation counting techniques. Bound radioactivity is normalized to samples containing vehicle (basal binding). […] The Ke values were calculated using the formula Ke=[L]/DR−1, where [L] is the concentration of test compound, and DR is the ratio of agonist EC50 value in the presence or absence of test compound. […]

T2 sequence (P41143 whole entry): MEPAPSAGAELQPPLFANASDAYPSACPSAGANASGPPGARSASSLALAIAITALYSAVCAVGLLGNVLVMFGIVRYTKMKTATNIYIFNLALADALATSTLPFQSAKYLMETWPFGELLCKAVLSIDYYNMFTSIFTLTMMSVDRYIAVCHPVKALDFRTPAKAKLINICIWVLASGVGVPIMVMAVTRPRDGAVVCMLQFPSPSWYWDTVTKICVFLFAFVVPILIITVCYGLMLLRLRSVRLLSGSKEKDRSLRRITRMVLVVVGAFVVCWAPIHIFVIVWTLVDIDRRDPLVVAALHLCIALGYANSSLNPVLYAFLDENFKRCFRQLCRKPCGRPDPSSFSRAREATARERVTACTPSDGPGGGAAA
T3 sequence (P35372 whole entry): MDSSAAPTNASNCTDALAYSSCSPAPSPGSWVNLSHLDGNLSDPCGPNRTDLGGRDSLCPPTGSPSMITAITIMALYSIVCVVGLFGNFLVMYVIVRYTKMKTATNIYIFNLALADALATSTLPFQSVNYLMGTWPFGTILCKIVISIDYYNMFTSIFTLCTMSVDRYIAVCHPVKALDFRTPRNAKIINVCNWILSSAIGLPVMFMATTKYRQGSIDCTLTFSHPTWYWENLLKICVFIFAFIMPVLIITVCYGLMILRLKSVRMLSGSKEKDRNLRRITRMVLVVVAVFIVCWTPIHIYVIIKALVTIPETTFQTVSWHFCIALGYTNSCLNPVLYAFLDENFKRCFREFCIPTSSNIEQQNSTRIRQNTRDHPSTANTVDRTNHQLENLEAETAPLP
T1 sequence (P41145 whole entry): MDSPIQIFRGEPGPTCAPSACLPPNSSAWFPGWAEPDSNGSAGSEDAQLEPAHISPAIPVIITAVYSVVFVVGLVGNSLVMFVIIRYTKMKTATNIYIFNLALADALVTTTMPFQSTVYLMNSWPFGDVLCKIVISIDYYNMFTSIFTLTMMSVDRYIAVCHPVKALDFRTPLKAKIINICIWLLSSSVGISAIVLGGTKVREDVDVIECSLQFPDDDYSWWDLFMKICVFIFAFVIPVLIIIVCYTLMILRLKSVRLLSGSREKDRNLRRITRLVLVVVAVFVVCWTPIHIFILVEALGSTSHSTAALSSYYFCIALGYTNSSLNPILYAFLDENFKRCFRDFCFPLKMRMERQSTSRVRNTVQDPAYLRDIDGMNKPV

In the case of CC(C)=CCC/C(C)=C/Cc1c(O)cc(O)cc1/C=C/c1ccc(O)c(O)c1CC=C(C)C [Compound 1, pawhuskin A], the “Ke at the KOP” value [1] is given as 0.20 µM, the Kb [2] is given as 2900 nM and the Kb [3] is given as 200 nM. The Kb [4] was 570000 nM.
In the case of COc1cc(/C=C/c2cc(O)c(O)c(CC=C(C)C)c2)c(C/C=C(\C)CCC=C(C)C)c(OC)c1 [Compound 3, 5-((E)-2-((E)-3,7-dimethylocta-2,6-dien-1-yl)-3,5-dimethoxystyryl)-3-(3-methylbut-2-en-1-yl)benzene-1,2-diol], the “Ke at the KOP” value [1] is given as 0.15 µM, the δ/κ selectivity ([1]; J. Nat. Prod. 2014) is given as greater than 67 and the μ/κ selectivity ([1]; J. Nat. Prod. 2014) is given as greater than 67. The Kb [2] was greater than 10000 nM, the Kb [3] was 150 nM and the Kb [4] was greater than 10000 nM.
With COc1cc(/C=C/c2ccc(O)c(O)c2CC=C(C)C)c(C/C=C(\C)CCC=C(C)C)c(OC)c1 [Compound 4] the intrinsic agonist activity [5] was “no agonist activity”, the Kb [2] was 25 nM and the KOP/DOP selectivity ([2]; ratio of Ke values) was greater than 400. For the same compound, the MOP/DOP selectivity ([2]; ratio of Ke values) was greater than 400, the Kb [3] was greater than 10000 nM and the Kb [4] was greater than 10000 nM.
